Assay results as given in patent US20150190404A1, “TREATING SEIZURES USING ICE INHIBITORS” (Vertex Pharmaceuticals Incorporated, priority 2004, published 2015).
“And” between values parts separate entries of the source, which are not always exact repeats. Equal values may be shown once. “Also recorded” adds a separate entry of the source.

Columns and labels:
[1] = system: kainic acid-induced seizures; experiment: Effect of ibuprofen on kainic acid-induced EEG seizures (Example 5); assay type: in vivo, Rats; details: for Status Epilepticus (time in status epilepticus) / Onset / No. of Seizures / Time in Seizures: 50 mg/kg
Protocol: EEG seizures were induced in adult male Sprague-Dawley rats by intrahippocampal injection of 40 ng kainic acid (KA) using a chronically-implanted cannula. EEG seizures were recorded using chronically-implanted hippocampal electrodes. Ictal and interictal epileptic activity was quantified quantified by EEG analysis based on the following parameters: 1) the time to onset of the first ictal episode, 2) the number of ictal episodes during the 3 hours of recording, and 3) the time spent in ictal activity reckoned by adding together the duration of each ictal event. Compound 2 or its vehicle were injected intraperitoneally for 3 consecutive days (50-200 mg/kg). The 4th day, rats received compound 2, 45 and 10 min before the intrahippocampal injection of 40 ng in 0.5 μl kainic acid.
The effect of ibuprofen on seizures was also examined using the methods described in Example 4. Rats received ibuprofen (50 mg/kg, i.p.) 60 min. before unilateral intrahippocampal injection of […] in 0.5 μl kainic acid. Controls (vehicle) received saline *p<0.05 vs. vehicle by Student's t-test. Seizures were analyzed and quantified by EEG. Status epilepticus represents continuous seizure activity lasting more than 30 min. consecutively.

[2] = system: kainic acid-induced seizures; experiment: Kainic acid-induced EEG seizures, compound 1 given intraperitoneally (Example 2); assay type: in vivo, rats
Protocol: An experimental model of seizures in rats was induced by unilateral microinjection of kainic acid (40 ng in 0.5 μL) in the dorsal hippocampus of freely-moving rats using chronically-implanted cannulae. […] EEG seizures were recorded using chronically-implanted hippocampal electrodes. […] See, Example 4, where a higher dose of compound 2 produced statistically significant effects.

rheumatoid arthritis = details: Pavelka et al. 2002, 285 patient PHII trial; cited from earlier work
seizures = experiment: Rodent seizure model, general statements on anti-convulsant activity; details: in vivo
Source text: The examples provided herein involve an rodent seizure model that is recognized as a good model of human epilepsy and convulsions disorders.

[3] = system: kainic acid-induced seizures; experiment: Kainic acid-induced EEG seizures, compound given intracerebroventricularly (Example 1); assay type: in vivo, male adult Sprague-Dawley rats; details: individual rats, 25 μg/4 μl icv
Protocol: An experimental model of seizures in male adult Sprague-Dawley rats was induced by unilateral microinjection of kainic acid (40 ng in 0.5 μl) in the dorsal hippocampus of freely-moving rats using chronically-implanted cannulae and electrodes. Briefly, animals were deeply anesthetized using Equithesin (1% […] and 4% chloral hydrate; 3 ml/kg, i.p.). Bipolar nichrome wire insulated electrodes (60 μm) were implanted bilaterally into the dentate gyrus of the dorsal hippocampus (septal pole), and a guide cannula (22 gauge) was unilaterally positioned on top of the dura and glued to one of the depth electrodes for the intrahippocampal injection of kainic acid. The coordinates from bregma for implantation of the hippocampal electrodes were (in mm: nose bar -2.5, AP -3.5, L ±2.4 and 3 below dura mater). An additional guide cannula was unilaterally positioned on top of the dura mater for intracerebroventricular injection of compounds (in mm, nose bar -2.5; AP -1; L +1.5). A ground lead was positioned over the nasal sinus and two screw electrodes were placed bilaterally over the parietal cortex. The electrodes were connected to a multipin socket (March Electronics, NY) and, together with the injection cannula, were secured to the skull by acrylic dental cement.

IL-1β = experiment: Western blot of IL-1β in hippocampal homogenates after kainate seizures; assay type: in vivo, rats; details: 25 μg/4 μL icv 45 and 10 min before kainic acid 40 ng, 90 min after seizures
Source text: See Example 1 and Example 6.

[4] = individual rats, i.p. 60 min. before kainic acid
[5] = individual rats, 30 mg/kg intraperitoneally, 45 and 10 min before 40 ng kainic acid, 30 mg/kg

In the case of `CC(C)Cc1ccc(C(C)C(=O)O)cc1` (stereo not shown) [Ibuprofen], the “Status Epilepticus (time in status epilepticus)” value (“Status Epilepticus” below) ([1]; Mean ± SE of (5) rats, i.p., vehicle —) is reported as 74.4 ± 2.6, the “Status Epilepticus” value ([1]; Mean ± SE of (5) rats, i.p., vehicle —, listed as ibuprofen) is reported as “increased the time in status epilepticus” and the Onset ([1]; Mean ± SE, i.p., vehicle 13.2 ± 2.1) is reported as 13.0 ± 1.7 min. The “No. of Seizures” value ([1]; Mean ± SE, i.p., vehicle 16.6 ± 1.0) was 11.7 ± 1.0, the “Time in Seizures” value ([1]; Mean ± SE, i.p., vehicle 21.1 ± 1.1) was 10.8 ± 0.6 min and the Onset ([1]; individual rats, i.p. 60 min. before intrahippocampal 40 μg in 0.5 μl kainic acid) was 14.4 min and 7.9 min and 11.0 min and 12.3 min and 13.3 min and 21.4 min and 10.0 min. For the same compound, the “No. of Seizures” value [1, 4] was 13 (2×) and 10 (2×) and 12 and 16 and 8, the “Time in Seizures” value [1, 4] was 13.0 min and 8.4 min and 11.0 min and 12.5 min and 11.2 min and 9.8 min and 9.4 min and the “Status Epilepticus” value ([1]; individual rats, i.p., continuous seizure activity lasting more than 30 min., all vehicle rats —) was 75 and 66.6 and 80 (2×) and 70. The “seizure activity compared to vehicle” value ([1]; intraperitoneal route) was “increased the seizure activity compared to vehicle”.
With `CCO[C@@H]1OC(=O)C[C@@H]1NC(=O)[C@@H]1CCCN2C(=O)CC[C@H](NC(=O)c3nccc4ccccc34)C(=O)N12` [Compound 1] the “reduction of the total time spent in ictal activity” value ([2]; 30 mg/kg intraperitoneally, vs vehicle, did not reach statistical significance) was −30%, the “No. of ictal episodes” value ([2]; Mean ± SE, 30 mg/kg intraperitoneally, vehicle 20.8 ± 2.5) was 20.5 ± 2.3 and the “Time in ictal activity” value ([2]; Mean ± SE, 30 mg/kg intraperitoneally, vehicle 36.6 ± 6.9) was 25.6 ± 2.8 min. The “ONSET (time to onset of the first ictal episode)” value [2, 5] was 10.5 min and 12 min and 14 min and 9 min (2×) and 23 min and 13 min and 11 min, the “Time in ictal activity” value [2, 5] was 9 min and 32 min and 27 min and 20 min and 34 min and 25 min and 30 min and 28 min and the “No. of ictal episodes” value ([2]; individual rats, 30 mg/kg intraperitoneally, 45 and 10 min before 40 ng kainic acid, 3 hours of recording, 30 mg/kg) was 8 and 23 (2×) and 29 and 17 and 25 (2×) and 16. The “seizure inhibition / anti-convulsant activity” value ([2]; intraperitoneal (peripheral) route) was “inhibit seizures; also recorded: have anti-convulsant activity when administered peripherally”, the “anti-inflammatory activity in rheumatoid arthritis patients” value (rheumatoid arthritis) was “anti-inflammatory activity” and the “anti-convulsant activity in the rodent seizure model” value (seizures) was “as effective as high doses of either phenytoin or carbamazepine”. The “Time in ictal activity” value ([3]; 45 and 10 min before 40 ng kainic acid) was 36.0 min (2×) and 30.0 min and 42.0 min (2×) and 34.0 min and 41.0 min, the “ONSET (time to onset of the first ictal episode)” value ([3]; 45 and 10 min before 40 ng kainic acid in left hippocampus) was 15.0 min and 20.0 min and 14.0 min (2×) and 18.0 min and 13.6 min and 9.0 min and 12.0 min and the “No. of ictal episodes” value ([3]; 45 and 10 min before 40 ng kainic acid, 3 hours of recording) was 28 and 29 and 30 (3×) and 37 and 31 and 33. The “mature active 17 kD IL-1β in hippocampus” value (IL-1β) was “blocked the seizure-induced production; also recorded: reduced the formation mature active 17 kD IL-1β”.
With `O=C1NC(=O)C(c2ccccc2)(c2ccccc2)N1` [phenytoin] the “anti-convulsant activity in the rodent seizure model” value (seizures) was “exhibit anti-convulsant activity”.
With `NC(=O)N1c2ccccc2C=Cc2ccccc21` [carbamazepine] the “anti-convulsant activity in the rodent seizure model” value (seizures) was “exhibit anti-convulsant activity”.
